Experiments:
[1] = system: ankylosing spondylitis patients; test: Response of ankylosing spondylitis patients to apremilast treatment, by biomarker-defined patient group; format: in vivo, human
Protocol: In this example, a group of ankylosing spondylitis patients was identified based on expression profile of 49 biomarkers as being more likely to be responsive to a treatment with apremilast. In particular, Myriad RBM inflammation MAP biomarker panel (having 49 biomarkers) was used to profile 280 patient samples in the study, among which 255 patient samples produced measurable biomarker levels. In these 255 patient samples, 95 patient samples were treated with 20 mg apremilast (“Apremilast 20 mg Arm Group”). Within the Apremilast 20 mg Arm Group, 36 patient samples were responsive to the treatment and 59 patient samples were not responsive to the treatment. 80 patient samples were treated with 30 mg apremilast (“Apremilast 30 mg Arm Group”). Within Apremilast 30 mg Arm Group, 31 patient samples were responsive to the treatment and 49 patient samples were not responsive to the treatment. The remaining 80 patient samples were control samples (placebo arm).
Unsupervised clustering was then used to analyze the biomarker expression profiles for these patient samples based on the 49 biomarkers (consensus clustering/distance (1-PCor)/Ward linkage method). These 49 biomarkers were Alpha-1-Antitrypsin, Alpha-2-Macroglobulin, Beta-2-Microglobulin, Brain-Derived Neurotrophic Factor, C-Reactive Protein, Complement C3, Eotaxin-1, Factor VII, Ferritin, Fibrinogen, Granulocyte-Macrophage Colony-Stimulating Factor, Haptoglobin, Intercellular Adhesion Molecule 1, Interferon gamma, Interleukin-1 alpha, Interleukin-1 beta, Interleukin-1 receptor antagonist, Interleukin-10, Interleukin-12 Subunit p40, Interleukin-12 Subunit p70, Interleukin-15, Interleukin-17, Interleukin-2, Interleukin-23, Interleukin-3, Interleukin-4, Interleukin-5, Interleukin-6, Interleukin-7, Interleukin-8, Macrophage Inflammatory Protein-1 alpha, Macrophage Inflammatory Protein-1 beta, Matrix Metalloproteinase-3, Matrix Metalloproteinase-9, MCP1, Stem Cell Factor, T-Cell-Specific Protein RANTES, Tissue Inhibitor of Metalloproteinases, Tumor Necrosis Factor alpha, Tumor Necrosis Factor beta, Tumor necrosis factor receptor 2, Vascular Cell Adhesion Molecule-1, Vascular Endothelial Growth Factor, Vitamin D-Binding Protein, von Willebrand Factor, Osteoprotegerin, Interleukin-18, RANKL, and Sclerostin.
The results are shown in the plot of FIG. 1A. As shown, a group of 50 patients (cluster 4) were identified as representing about 30% of the total treatment arm population. […] In particular, within this group of 50 patients, the response rate was about 54%, higher than the response rate in the remaining patients which was about 31%.
Each biomarker was then further analyzed for its association with the cluster 4 patient group. MCP1 cytokine was identified as being able to most strongly differentiate the cluster 4 group with the remaining patients. […] The threshold derived from the mid-point (or average) of the median of MCP1 low cluster and the median of non MCP1 low patients was 93.5 pg/ml (see the dash line in the right panel of FIG. 2A).
When the threshold was calculated as the mid-point between median MCP1 level in cluster 4 patient group and median MCP1 level in the remaining patients, the threshold level was 93.5 pg/ml.
A third method used to calculate a MCP1 threshold level was by calculating the mean of thresholds obtained from 10-fold cross validation (discussed above). In particular, each fold provided an optimal threshold according to the AUC metric when classifying for cluster membership. Then, the mean value of the 10 thresholds was calculated. Using this method, the threshold of MCP1 was calculated as 75.63 pg/ml. With this more restrictive learned threshold, the population selected into the MCP1 low group decreased while the response rate of the MCP1 low sub-group increased.

Ankylosing Spondylitis = settings: after 24 weeks, largest study trial; placebo 22%; cited from earlier work

Compound | patient samples responsive to the treatment ([1]; Apremilast 20 mg Arm Group, 95 patient samples) | patient samples responsive to the treatment ([1]; Apremilast 30 mg Arm Group, 80 patient samples) | response rate ([1]; MCP1 low group, threshold 75.63 pg/ml, apremilast 30 mg arm (22% of the patients)) [%] | response rate ([1]; MCP1 low group, threshold 93.5 pg/ml, apremilast 30 mg arm (45% of the patients)) [%] | response rate ([1]; MCP1 low group, threshold 93.5 pg/ml, both 20 mg and 30 mg arms (36% of the patients)) [%] | response rate ([1]; cluster 4 (MCP1 low patient group), 50 patients, 20 mg or 30 mg apremilast) | response rate ([1]; cluster 4 patients receiving 30 mg apremilast (25 patients)) [%] | patients responded ([1]; cluster 4 patients receiving 30 mg apremilast, out of 25) | response rate ([1]; patient subgroup differentiated by MCP1 level (14% of total population), apremilast arm 20 mg or 30 mg, FIG. 2B) | response rate ([1]; patient subgroup differentiated by MCP1 level (20% of apremilast 30 mg arm), 30 mg apremilast, FIG. 2C) | response rate ([1]; remaining patients (not cluster 4), treatment arms) | response rate ([1]; remaining patients in the Apremilast 30 mg Arm Group (not cluster 4)) [%] | response rate (ASAS 20 response criteria) (Ankylosing Spondylitis) [%]
CCOc1cc([C@@H](CS(C)(=O)=O)N2C(=O)c3cccc(NC(C)=O)c3C2=O)ccc1OC [apremilast, (+)-2-[1-(3-ethoxy-4-methoxyphenyl)-2-methylsulfonylethyl]-4-acetylaminoisoindoline-1,3-dione] | 36 | 31 | 67 | 56 | 49 | about 54% | 64 | 16 | about 62.5% | about 66.6% | about 31% | 27 | –
etanercept | – | – | – | – | – | – | – | – | – | – | – | – | 57
